Assay results as given in PubChem BioAssay AID248 (DTP/NCI, 2004).
Several values for one entry are separate records, joined by “and”; a condition that tells them apart may be missing. Equal values may be shown once. Inconclusive results and toxic doses are left out. No stated cut-off is given here; in the data, active means T/C of 150% or more; inactive means T/C below 125%.

Tested on: L1210 leukemia ip in BDF1 mice, survival T/C
Test: NCI In Vivo Anticancer Drug Screen. Data for tumor model L1210 Leukemia (intraperitoneal) in B6D2F1 (BDF1) mice
Conditions: endpoint: mean survival time, higher = longer survival
How it was run: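 Tumor was transplanted into mice, which were then dosed with test compound or vehicle alone. Survival was recorded for each group, and the treated figure was expressed relative to the control figure.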

[1] = dose: 50.0 mg/kg/injection, schedule: Q01DX001 (ip), vehicle: other
[2] = dose: 100.0 mg/kg/injection, schedule: Q01DX001 (ip), vehicle: other
[3] = dose: 100.0 mg/kg/injection, schedule: Q01DX009 (ip), vehicle: saline
[4] = dose: 100.0 mg/kg/injection, schedule: Q04DX003 (ip), vehicle: saline
[5] = dose: 200.0 mg/kg/injection, schedule: Q01DX001 (ip), vehicle: other
[6] = dose: 200.0 mg/kg/injection, schedule: Q01DX009 (ip), vehicle: saline
[7] = dose: 200.0 mg/kg/injection, schedule: Q04DX003 (ip), vehicle: saline
[8] = dose: 400.0 mg/kg/injection, schedule: Q01DX001 (ip), vehicle: other
[9] = dose: 400.0 mg/kg/injection, schedule: Q01DX009 (ip), vehicle: saline
[10] = dose: 400.0 mg/kg/injection, schedule: Q04DX003 (ip), vehicle: saline
[11] = dose: 100.0 mg/kg/injection, schedule: Q01DX009 (ip), vehicle: Klucel (hydroxypropylcellulose) (HPC)
[12] = dose: 200.0 mg/kg/injection, schedule: Q01DX009 (ip), vehicle: Klucel (hydroxypropylcellulose) (HPC)
[13] = dose: 100.0 mg/kg/injection, schedule: Q04DX003 (ip), vehicle: Klucel (hydroxypropylcellulose) (HPC)
[14] = dose: 200.0 mg/kg/injection, schedule: Q04DX003 (ip), vehicle: Klucel (hydroxypropylcellulose) (HPC)

Measured: T/C

ClC(c1ccccc1)(c1ccccc1)c1ccccc1
inactive: [1] 96 % of control | [2] 102 % of control | [3] 87 % of control | [4] 90 % of control | [5] 106 % of control | [6] 94 % of control | [7] 93 % of control | [8] 100 % of control | [9] 90 % of control | [10] 88 % of control

Cc1cccc(NC(=O)c2ccc(Cl)cc2)c1C
inactive: [11] 99 % of control | [4] 111 % of control | [12] 95 % of control | [7] 104 % of control | dose: 400.0 mg/kg/injection, schedule: Q01DX009 (ip), vehicle: Klucel (hydroxypropylcellulose) (HPC) 95 % of control | [10] 109 % of control

CCCCCCCCCCCCCCCCS(=O)(=O)CCO
inactive: dose: 100.0 mg/kg/injection, schedule: Q01DX009 (ip), vehicle: saline with Tween-80 98 % of control | dose: 200.0 mg/kg/injection, schedule: Q01DX009 (ip), vehicle: saline with Tween-80 93 % of control | dose: 400.0 mg/kg/injection, schedule: Q01DX009 (ip), vehicle: saline with Tween-80 92 % of control

CC(=O)c1ccc(OCc2ccccc2)cc1OCC(O)CN1CCN(c2ccc(C)c(C)c2)CC1 (centres undefined)
inactive: dose: 100.0 mg/kg/injection, schedule: Q04DX003 (ip), vehicle: saline with Tween-80 97 % of control | dose: 200.0 mg/kg/injection, schedule: Q04DX003 (ip), vehicle: saline with Tween-80 95 % of control | dose: 400.0 mg/kg/injection, schedule: Q04DX003 (ip), vehicle: saline with Tween-80 92 % of control

C=CCc1ccccc1NC(=O)NCCCl
inactive: dose: 50.0 mg/kg/injection, schedule: Q01DX009 (ip), vehicle: Klucel (hydroxypropylcellulose) (HPC) 106 % of control | [11] 100 % of control | [13] 93 % of control | [12] 111 % of control | [14] 104 % of control

Nc1cncc2ncc(-c3ccc(Cl)cc3)nc12
inactive: [1] 105 % of control | [2] 100 % of control | [5] 94 % of control | [8] 96 % of control

O=C1C=C(Nc2ccc(N(CCCl)CCCl)cc2)c2ccccc2C1=O
inactive: [13] 107 % of control | [14] 114 % of control | dose: 400.0 mg/kg/injection, schedule: Q04DX003 (ip), vehicle: Klucel (hydroxypropylcellulose) (HPC) 95 % of control

CC(=O)NC1=C(S(=O)(=O)O)c2ccccc2C1
inactive: dose: 100.0 mg/kg/injection, schedule: Q01DX001 (ip), vehicle: saline 105 % of control | [3] 98 % of control | dose: 100.0 mg/kg/injection, schedule: Q04DX002 (ip), vehicle: saline 94 % of control and 110 % of control and 118 % of control | [4] 104 % of control | dose: 200.0 mg/kg/injection, schedule: Q01DX001 (ip), vehicle: saline 115 % of control | [6] 98 % of control and 104 % of control | dose: 200.0 mg/kg/injection, schedule: Q04DX002 (ip), vehicle: saline 94 % of control and 103 % of control | [7] 96 % of control | dose: 400.0 mg/kg/injection, schedule: Q01DX001 (ip), vehicle: saline 108 % of control | [9] 105 % of control and 106 % of control | dose: 400.0 mg/kg/injection, schedule: Q04DX002 (ip), vehicle: saline 102 % of control and 109 % of control and 88 % of control | [10] 102 % of control

CCCC(OC(C)=O)C(C)[N+](=O)[O-] (centres undefined)
inactive: dose: 50.0 mg/kg/injection, schedule: Q01DX001 (ip), vehicle: saline with Tween-80 96 % of control | dose: 100.0 mg/kg/injection, schedule: Q01DX001 (ip), vehicle: saline with Tween-80 92 % of control | dose: 200.0 mg/kg/injection, schedule: Q01DX001 (ip), vehicle: saline with Tween-80 103 % of control
